Experimental data reported in the NIST ThermoML archive (doi:10.1021/acs.jced.7b00581).

Settings: 100 kPa, Liquid; for speed of sound: Single path-length method; for mass density: Vibrating tube method

CCCO [propan-1-ol]
Settings | mass density [kg/m3] | speed of sound [m/s]
288.15 K | 807.834 | 1242.3
298.15 K | 799.597 | 1205.3
308.15 K | 791.399 | 1170.4
318.15 K | 783.121 | 1137.3
